Test: Stability test at 60° C. severe condition, impurity IV
Assay type: physicochemical
Experimental: The stability of the tablets of Examples 6 to 9 and Comparative Example 9 above was evaluated. In addition, the stability was evaluated using HM781-36B itself as Comparative Example 11.
Specifically, each of the tablets of Examples 6 to 9 and Comparative Example 9 above was packaged with Formpack® Dessiflex Blister (where to get: amcor), and the HM781-36B of Comparative Example 11 was packaged in an HDPE bottle, and then these were stored for 1, 2, and 4 weeks at a temperature of 60° C., which is a severe condition. The stability evaluation was performed for the samples stored for the above period according to the analysis conditions of Experimental Example 6.

In the case of `C=CC(=O)N1CCC(Oc2cc3c(Nc4ccc(Cl)c(Cl)c4F)ncnc3cc2OC)CC1` [Comparative Example 11], the “Amount of Impurity IV” value (1 week, 60° C.) is reported as 0.06%, the “Amount of Impurity IV” value (2 weeks, 60° C.) is reported as 0.07% and the “Stability (in words)” value (4 weeks under severe conditions, 60° C.) is reported as “very stable results”. For the same compound, the “Amount of Impurity IV” value (4 weeks, 60° C.) was 0.07% and the “Amount of Impurity IV” value (Initial, tablets in Formpack Dessiflex Blister, HM781-36B in HDPE bottle) was 0.06%.

Source: patent US20220378790A1, “PHARMACEUTICAL PREPARATION COMPRISING AN AMIDE DERIVATIVE INHIBITING THE GROWTH OF CANCER CELL AND A PHARMACEUTICAL PRODUCT CONTAINING THE SAME” (Hanmi Pharm Co., Ltd., priority 2019, published 2022)
